We go through 2 compounds from patent publication US8309685B2 (Celgene Avilomics Research, Inc., priority 2007, dated 2012).

In assay [1] the target is T1, NS3 protease self-cleavage in Huh-7-Luc-Neo-ET wild-type replicon cells (Hepatitis C virus genotype 1b, UniProt Q9WMX2, E1202G/T1280I).
T1 construct: host or cells: Huh-7-Luc-Neo-ET (human Huh7 hepatoma cells carrying the replicon)
Briefly: Inhibition of protease self cleavage after compound removal, wild-type replicon cells. In kind it is cell-based. The conditions noted are these: up to 24 hours after compound removal. On the procedure:
Inhibition of Protease Self Cleavage
Huh-7-Luc-Neo-ET cells were plated in Replicon Assay Medium (RPMI supplemented with 5% FBS, 1× non-essential amino acids and pen/strep) at a density of 1×10^5 cells/well in 12 well plates. Eight hours later the media was removed and replaced with 1 ml media containing test compound (5 wells per compound) and 0.02% DMSO and the cells were returned to the incubator overnight. Sixteen hours later 1 well from each compound and 1 untreated well were washed with PBS, then lysed and scraped into 30 ul of Cell Extraction Buffer (Biosource, Camarillo, Calif.) plus Complete Protease Inhibitor (Roche, Indianapolis, Ind.). The remaining wells were rinsed 2× with PBS then fed with Replicon Media and returned to the incubator. […]
Cell lysates were separated by SDS-Page (4-20%) and transferred to Immobilon-P PVDF membrane (Millipore Corporation, Mass.) and blotted with polyclonal anti NS3 antibody (Bioenza, Calif.). Blots were scanned on an Odyssey infrared scanner from Licor and the FL band and cleavage products were quantified separately using the Licor software provided with the scanner. The cleavage product was calculated as a percentage of the total NS3 in each sample and then normalized to the DMSO control so that the DMSO control reflects 100% activity.

Assay [2] addresses T2, wild type HCV NS3/4A 1b protease enzyme (Hepatitis C virus genotype 1b, UniProt P26663).
T2 construct: 10× stocks of NS3/4A protease enzyme from Bioenza (Mountain View, Calif.); purchased Bioenza (Mountain View, Calif.)
Briefly: HCV Protease FRET Assay (IC50_APP), wild type. In kind it is biochemical.

The test system of assay [3] is HCV RNA replicon in cell line ET (luc-ubi-neo/ET), human Huh7 hepatoma. Briefly: Method A: HCV RNA replicon antiviral assay (luciferase, ET cell line). In kind it is cell-based, Hepatitis C virus. The conditions noted are these: Hepatitis C virus, Huh-7, assay described in Example 22. In outline:
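Six 3-fold dilutions of each drug were tested on subconfluent luc-ubi-neo/ET Huh7 replicon cells (5×10^3/well) for 72 hr at 37 °C. EC50 and EC90 came from luciferase read-out, IC50 from CytoTox-1 cell number, and […]; interferon alpha-2b was run each time as control.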

The target of assay [4] is T3, NS3 protease with R155K mutation in modified replicon system (Hepatitis C virus genotype 1b, UniProt Q9WMX2, E1202G/R1181K/T1280I).
T3 construct: modified replicon system where the NS3 protease contains a clinically observed mutation; expressed in transfected cells; host or cells: Huh7-Lunet cells transfected with in vitro transcribed replicon RNA
The experiment in a line: Inhibition of protease self cleavage after compound removal, R155K replicon system. In kind it is cell-based. On the procedure: Constructs containing clinically relevant mutations were generated by performing site-directed mutagenesis on the pFK-I389-luc-ubi-neo-NS3-3′ET plasmid (ReBLikon Gmbh (Heidelberg, Germany)). using the QuickChange II Site-Directed Mutagenesis Kit (Stratagene, La Jolla, Calif.) according to manufacturer's directions and with the primers described in Table 7, below.
Huh-7-Luc-Neo-ET cells were plated in Replicon Assay Medium (RPMI supplemented with 5% FBS, 1× non-essential amino acids and pen/strep) at a density of 1×10^5 cells/well in 12 well plates. Eight hours later the media was removed and replaced with 1 ml media containing test compound (5 wells per compound) and 0.02% DMSO and the cells were returned to the incubator overnight. […]
Cell lysates were separated by SDS-Page (4-20%) and transferred to Immobilon-P PVDF membrane (Millipore Corporation, Mass.) and blotted with polyclonal anti NS3 antibody (Bioenza, Calif.). Blots were scanned on an Odyssey infrared scanner from Licor and the FL band and cleavage products were quantified separately using the Licor software provided with the scanner. The cleavage product was calculated as a percentage of the total NS3 in each sample and then normalized to the DMSO control so that the DMSO control reflects 100% activity. […]

The target in assay [5] is T4, A156T mutant of the HCV NS3/4A 1b protease enzyme (Hepatitis C virus genotype 1b, UniProt P26663, A1182T).
T4 construct: 10× stocks of NS3/4A protease enzyme from Bioenza (Mountain View, Calif.); purchased Bioenza (Mountain View, Calif.)
The experiment in a line: HCV Protease FRET Assay (IC50_APP), A156T mutant. In kind it is biochemical. The conditions noted are these: apparent IC50, A156T mutant; read-out: IC50_APP, HCV A156T.

Assay [6] has as its target T5, D168A mutant of the HCV NS3/4A 1b protease enzyme (Hepatitis C virus genotype 1b, UniProt P26663, D1194A).
T5 construct: 10× stocks of NS3/4A protease enzyme from Bioenza (Mountain View, Calif.); purchased Bioenza (Mountain View, Calif.)
Briefly: HCV Protease FRET Assay (IC50_APP), D168A mutant. The conditions noted are these: apparent IC50, D168A mutant; read-out: IC50_APP, HCV D168A. In kind it is biochemical.

For assay [7], the target named is T6, C159S mutant of the HCV NS3/4A 1b protease enzyme (Hepatitis C virus genotype 1b, UniProt P26663, C1185S).
T6 construct: 10× stocks of NS3/4A protease enzyme from Bioenza (Mountain View, Calif.); purchased Bioenza (Mountain View, Calif.)
The experiment in a line: HCV Protease FRET Assay (IC50_APP), C159S mutant. To be noted: apparent IC50, C159S mutant. In kind it is biochemical. On the procedure: HCV Protease FRET Assay for WT and Mutated NS3/4A 1b Enzymes (IC50—APP).
The following protocol was used to generate “apparent” IC50 (IC50—APP) values as depicted in Table 6, below. […] 5 μL of each enzyme were added to Corning (#3575) 384-well, black, microtiter plates (Corning, N.Y.) after spotting a 0.5 μL volume of 50% DMSO and serially diluted compounds prepared in 50% DMSO. Protease reactions were immediately started after enzyme addition with the addition of 45 μL of the FRET substrate and monitored for 60-90 minutes at λex485/λem520 in a Synergy^4 plate reader from BioTek (Winooski, Vt.). At the conclusion of each assay, progress curves from each well were examined for linear reaction kinetics and fit statistics (R^2, 95% confidence intervals, absolute sum of squares).
The compound numbers correspond to the compound numbers in Table 3. […] ;

Assay [8] deals with T7, R155K mutant of the HCV NS3/4A 1b protease enzyme (Hepatitis C virus genotype 1b, UniProt P26663, R1181K).
T7 construct: 10× stocks of NS3/4A protease enzyme from Bioenza (Mountain View, Calif.); purchased Bioenza (Mountain View, Calif.)
The experiment in a line: HCV Protease FRET Assay (IC50_APP), R155K mutant. In kind it is biochemical. The conditions noted are these: apparent IC50, R155K mutant; read-out: IC50_APP, HCV R155K.

The target in assay [9] is T8, HCV NS3/4A genotype 2a (Hepatitis C virus genotype 2a, UniProt P26660).
T8 construct: Mass spectrometric analysis of HCV NS3/4A genotypes 1a, 1b, 2a, and 3a
The experiment in a line: Mass spectrometric analysis of covalent modification, genotype 2a. In kind it is binding. To be noted: 10× excess of compound, 3 hr. Here is the method:
(§1) Mass spectrometric analysis of HCV NS3/4A genotypes 1a, 1b, 2a, and 3a in the presence of test compound I-96 was performed using the following protocol: HCV NS3/4A was incubated for 3 hr at a 10× fold access of test compound to protein. 2 ul aliquots of the samples were diluted with 10 ul of 0.1% TFA prior to micro C4 ZipTipping directly onto the MALDI target using Sinapinic acid as the desorption matrix (10 mg/ml in 01% TFA:Acetonitrile 50:50). For intact protein mass measurement the instrument was set in Linear mode using a pulsed extraction setting of 24,500 and apomyoglobin as the standard to calibrate the instrument.

Assay [10] deals with HCV RNA replicon in cell line ET (luc-ubi-neo/ET), human Huh7 hepatoma. The experiment in a line: Luciferase Assay (Example 35), replicon-derived luciferase activity. In kind it is cell-based. To be noted: Hepatitis C virus, Huh-7, assay described in Example 35. The essentials: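 Huh7-derived ET cells carrying a luciferase-reporter HCV replicon, 5×10^3 cells/well, exposed 72 h to six 3-fold compound concentrations in DMEM with 5% FBS. Replicon luciferase gives EC50/EC90; Cell Titer Blue cell number gives cytotoxic IC50, with SI50 as their ratio. Interferon alpha-2b served as positive control.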

Assay [11] deals with T9, HCV NS3/4A genotype 3a (Hepatitis C virus genotype 3a, UniProt Q81258).
T9 construct: Mass spectrometric analysis of HCV NS3/4A genotypes 1a, 1b, 2a, and 3a
The experiment in a line: Mass spectrometric analysis of covalent modification, genotype 3a. In kind it is binding. The conditions noted are these: 10× excess of compound, 3 hr. Here is the method:
as §1

Assay [12] concerns the target T10, HCV NS3/4A genotype 1a (Hepatitis C virus genotype 1a, UniProt P27958).
T10 construct: Mass spectrometric analysis of HCV NS3/4A genotypes 1a, 1b, 2a, and 3a
The experiment in a line: Mass spectrometric analysis of covalent modification, genotype 1a. In kind it is binding. To be noted: 10× excess of compound, 3 hr. Here is the method: as §1

Assay [13] concerns the target T11, HCV NS3/4A wild type (genotype 1b) (Hepatitis C virus genotype 1b, UniProt P26663).
T11 construct: mass spectroscopic analysis of HCV NS3/4A wild-type protease domain; purchased Bioenza Calif
Briefly: Mass spectrometric analysis (MALDI-TOF) of covalent modification, HCV wild type. In kind it is binding. The conditions noted are these: 10-fold excess of compound to protein, 3 hrs. Here is the method: Mass spectrometric analysis of HCV wild type or HCV variant C159S in the presence of test compound was performed. 100 pmols of HCV wild type (Bioenza Calif.) was incubated with compound for 1 hr and 3 hrs at 10-fold access of […] to protein. 1 ul aliquots of the samples (total volume of 4.24 ul) were diluted with 10 ul of 0.1% TFA prior to micro C4 ZipTipping directly onto the MALDI target using Sinapinic acid as the desorption matrix (10 mg/ml in 01% TFA:Acetonitrile 50:50). Analyses were performed on a Shimadzu Biotech Axima TOF^2 (Shimadzu Instruments) matrix-assisted-laser desorption/ionization Time-of-Flight (MALDI-TOF) mass spectrometer. The same procedure was carried out on 100 pmols of HCV C159S mutant of HCV protease for 3 hrs at 10-fold excess of (I-3) to protein.
As depicted in FIGS. 2, 3, 4, and 5, mass spectrometric analysis of HCV wild type or HCV mutants in the presence of test compound (I-3) was performed. […] 1 ul aliquots of the samples were diluted with 10 ul of 0.1% TFA prior to micro C4 ZipTipping directly onto the MALDI target using Sinapinic acid as the desorption matrix (10 mg/ml in 0.1% TFA:Acetonitrile 50:50).
as §1, with “wild type (genotype 1b)” for “NS3/4A genotypes 1a, 1b, 2a, and 3a”, “compounds I-73 and I-75” for “compound I-96”, “NS3/4A wild type (wt)” for “NS3/4A”, “1” for “3”, “0.1%” for “01%”
Mass spectrometric analysis of HCV NS3/4A genotypes 1a, 1b, 2a, and 3a in the presence of test compound I-96 was performed using the following protocol: HCV NS3/4A was incubated for 3 hr at a 10× fold access of test compound to protein. […]

Regarding `C=CC(=O)N[C@H](C)C(=O)N1C[C@H](Oc2cc(-c3ccccc3)nc3cc(OC)ccc23)C[C@H]1C(=O)N[C@]1(C(=O)NS(=O)(=O)C2CC2)C[C@H]1C=C` [Compound I-54, (2S,4R)-1-((R)-2-acrylamidopropanoyl)-N-((1R,2S)-1-(cyclopropylsulfonylcarbamoyl)-2-vinylcyclopropyl)-4-(7-methoxy-2-phenylquinolin-4-yloxy)pyrrolidine-2-carboxamide], in assay [1], the “Inhibition of NS3 protease activity (self-cleavage) after compound removal” value was “virtually complete inhibition”. In addition, the IC50 in [2] was under 10 nM; in [3] (read-out: Replicon (IC50)) it was under 10 nM; in assay [5], 10 to 100 nM; in assay [6], 10 to 100 nM. The compound further yielded a concentration for an effect of 90% (IC90) in assay [3] (IC90) of under 10 nM. The “Duration of inhibition of mutant protease activity after compound removal” value in [4] is given as “at least 24 hours”.
On to `C=C[C@@H]1C[C@]1(NC(=O)[C@@H]1C[C@@H](Oc2nccc3cc(OC)ccc23)CN1C(=O)[C@H](CCC(=O)C=C(C)C)NC(=O)OC(C)(C)C)C(=O)NS(=O)(=O)C1CC1` [Compound I-96, {1-[2-(1-Cyclopropanesulfonylaminocarbonyl-2-vinyl-cyclopropylcarbamoyl)-4-(6-methoxy-isoquinolin-1-yloxy)-pyrrolidine-1-carbonyl]-6-methyl-4-oxo-hept-5-enyl}-carbamic acid tert-butyl ester], for which the IC50 is under 10 nM in assay [7]; under 10 nM in [2]; 10 to 100 nM in [8]; 10 to 100 nM in assay [5]; 100 to 1000 nM in [6]. The “Covalent modification of HCV NS3/4A genotype 2a by mass spectrometry” value in assay [9] was “measurable covalent modification”. The compound further had an EC90 in assay [10] (EC90) of 10 to 100 nM. The EC50 in assay [10] was under 10 nM. The “Covalent modification of HCV NS3/4A genotype 3a by mass spectrometry” value in assay [11] is recorded as “measurable covalent modification”. The “Covalent modification of HCV NS3/4A genotype 1a by mass spectrometry” value in [12] is “measurable covalent modification”. Besides, the “Covalent modification of HCV wild type by mass spectrometry” value in [13] was “measurable covalent modification”.
